Experimental data from US20250043349A1, “DEORPHANIZING ODORS USING SINGLE CELL SEQUENCING” (PRESIDENT AND FELLOWS OF HARVARD COLLEGE, priority 2021, published 2025).

Assays:
M72 receptor = conditions: Arneodo et al. 2018; Zhang et al. 2012; cited from earlier work
M72 (Olfr160) = experiment: Act-Seq activation score in OSNs expressing M72; format: in vivo, mouse; conditions: compared with acetophenone
Method: Act-Seq (Wu et al., 2017) was performed following odor exposure to quantify odor-evoked responses in each OSN subtype (defined by their expressed OR) across the entire OR repertoire. Mice were habituated to a reversed light cycle for at least for 1 week before odor exposure, transferred to a new disposable cage with regular bedding/food and kept overnight in a satellite animal facility. On the experimental day, each mouse was first transferred to a new empty disposable cage during the dark cycle and habituated for 20 minutes. Empty cages were used to avoid any activation by odorants present within the environments in which the mice were housed. Odors were added to a piece of filter paper (100 μL of odorant) in a 35 mm petri dish and a cotton ball (200 μL of odorant) and placed in each cage. […]
The remaining 169 activation genes that were also considered as HVGs often had weak loadings across multiple GEPs. […] To summarize the effects of odor activation across this set of activation genes, the TPT-expression of these activation genes were z-scored (using means and standard deviations for these genes in the control, acetophenone, and octanal datasets, identified by subsampling equal numbers of cells across all ORs expressed in at least 6 cells across 100 restarts). […] PCA was performed on the differences in z-scored activation gene expression between control and odor conditions. […]

OR10A6 [1] = molecular target: T1, OR10A6 (Homo sapiens, UniProt Q8NH74); conditions: previous study (doi.org/10.3390/molecules25204743); cited from earlier work
T1 sequence (Q8NH74 1-314): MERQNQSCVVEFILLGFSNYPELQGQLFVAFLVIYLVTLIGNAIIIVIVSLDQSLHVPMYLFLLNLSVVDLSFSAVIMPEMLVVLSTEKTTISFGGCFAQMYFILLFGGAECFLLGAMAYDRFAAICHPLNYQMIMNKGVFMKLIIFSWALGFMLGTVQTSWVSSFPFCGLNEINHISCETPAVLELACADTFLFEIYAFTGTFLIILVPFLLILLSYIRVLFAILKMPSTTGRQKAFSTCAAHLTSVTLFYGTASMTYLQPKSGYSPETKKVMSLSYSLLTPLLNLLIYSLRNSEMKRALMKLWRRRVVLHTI

OR10A6 [2] = molecular target: T1, OR10A6; experiment: In vivo human act-seq: nasal swab after 1 hour exposure, IEG expression in OSNs; design: endogenous in cells; host or cells: olfactory sensory neurons of a human subject, exposed in vivo and collected by nasal swab; conditions: human subject
Method: FIG. 16A-16D show in vivo human act-seq data. FIG. 16A depicts a UMAP plot showing olfactory cells obtained from a human subject using a nasal swab after 1 hour exposure to 2-phenylethanol, which smells like rose oil. 1 hour exposure is performed by asking the subject to sniff the odor vial every 2-5 minutes. All major olfactory cell types were identified. OSN: olfactory sensory neuron lineage (progenitors and immature or mature neurons). SUS: sustentacular cells. HBC: horizontal basal cell. MV: microvillar cells. BG: Bowman's gland cells. FIG. 16B examines total count normalized expression of GFY gene (a mature OSN marker) in the UMAP plot. FIG. 16C examines total count normalized expression of immediate early genes (IEG) in OSNs that expressed odorant receptors (OR). […] Horizontal bars indicate mean across cells.

olfactory bulb glomeruli = experiment: In vivo olfactory bulb imaging of OSN axons (GCaMP glomerular odor responses); design: species or system mouse; conditions: odor panel, anesthetized mice
Method: All surgical procedures were performed in accordance with the guidelines provided by IACUC at Harvard Medical School. Prior to surgery. 4-6 weeks old Omp-IRES-Cre: Ai951) (GCaMP6f) mice, were subcutaneously injected with the analgesic Buprenorphine-SR (1 mg/kg) and anesthetized 1-2 hours later with isoflurane (3% induction. 1-2% maintenance). The skin overlying the left olfactory bulb was retracted and the underlying periosteum was scraped off with a scalpel. The skull was subsequently cleaned with saline and allowed to dry. A 2.5 mm circular craniotomy was made using a biopsy punch (Integra Miltex) taking care not to damage the underlying dura. Gelfoam saturated with cold saline was placed over the craniotomy to reduce swelling and suppress minor bleeds. A custom cranial window was constructed using two circular coverslips (Warner Instruments, 3 mm. #1 thickness). […]
Chronic imaging of the dorsal surface of the olfactory bulb was performed after recovery from the surgery (1-2 weeks) under ketamine (100 mg/kg) and xylazine (10 mg/kg) induced anesthesia, to specifically isolate responses in OSN axons with less modulation from local interneurons and long-range cortical feedback. Depth of anesthesia was assessed every 15 minutes via the toc-pinch reflex and intraperitoneal ketamine was administered at 1/3 concentration of the induction dose for anesthesia maintenance. […]

[3] = system: OSN subtypes (odorant receptors, ORs); experiment: Act-Seq: scSeq of olfactory epithelium after two-hour odor exposure (IEG expression, activated ORs, activation score); format: in vivo, mouse
Method: Act-Seq (Wu et al., 2017) was performed following odor exposure to quantify odor-evoked responses in each OSN subtype (defined by their expressed OR) across the entire OR repertoire. Mice were habituated to a reversed light cycle for at least for 1 week before odor exposure, transferred to a new disposable cage with regular bedding/food and kept overnight in a satellite animal facility. On the experimental day, each mouse was first transferred to a new empty disposable cage during the dark cycle and habituated for 20 minutes. Empty cages were used to avoid any activation by odorants present within the environments in which the mice were housed. Odors were added to a piece of filter paper (100 μL of odorant) in a 35 mm petri dish and a cotton ball (200 μL of odorant) and placed in each cage. After 2 hours, mice were euthanized, and dissociation was performed as described below. Odors used in this study were as follows. Dipropylene glycol (DPG, control solvent), and 10% of acetophenone, octanal, 2-hydroxy acetophenone, 4-methyl acetophenone, and methyl salicylate. As a control, mice were exposed to DPG alone for 30 min. This control condition was used to account for any drift in transcriptomes during the overnight housing and habituation periods prior to odor exposure and designed to capture the transcriptome in the state it would have been in the odor-exposed animals prior to odor exposure. […] Act-Seq was also performed using lower concentrations of acetophenone (1.0, 0.1, 0.01%) and 2-hydroxy acetophenone (0.1%, 0.01%). All odor dilutions were made with DPG, and all odors and DPG were obtained from Sigma. To assess the persistence of any transcriptional changes observed as a result of odor exposure, a cohort of mice was exposed to acetophenone or DPG for 2 hours, transferred to new clean regular home cages, and subjected to scSeq after an additional 22 hours.
The main olfactory epithelium was dissected in Earle's Balanced Salt Solution (EBSS, pre-treated with carbogen for at least 5 minutes before each use, Worthington), then transferred to a round-bottomed glass dish containing 750 μL of papain solution (one vial of Papain (Worthington) dissolved in 5 mL of EBSS and then equilibrated 10 minutes at 37° C.) and 100 μL of DNase solution (one vial of DNase-I (Worthington) dissolved in 500 μL of EBSS). Bone was removed from the epithelium under a dissecting microscope and the resulting epithelial tissue was placed in a 5 mL tube (Becton Dickinson) with an additional 1.75 mL of Papain solution and 200 μL of DNase-I solution and rocked gently for-60 minutes at 37° C. The tissue was then gently triturated with a 5 mL pipette 10-15 times, passed through a 40 μm cell strainer (Becton Dickinson), and washed with 1 mL of Hibernate-A medium containing 10% Fetal Bovine Serum (FBS. GIBCO). Filtered cells were transferred to a new 5 mL tube and centrifuged 5 minutes at 300×g. The supernatant was decanted, the cells were washed once with 4 mL Hibernate-A containing 10% FBS and resuspended in 1 mL Hibernate-A containing 0.2% FBS. Importantly, each of the solutions above contained transcriptional inhibitors (5 μg/mL of Actinomycin D, 10 μg/mL of Anisomycin and 10 μM of Triptolide, all obtained from Sigma) for all experiments, especially the Act-Seq experiments, except where noted.
OSN subtypes that were responsive to odorants were identified via a two-step process. First, individual OSNs (as defined by the expressed OR) were determined as activated based on their mean z-scored immediate early genes (IEG) expression. A set of 10 IEGs were used (Btg2, Egr1, Fos, Fosb, Gm13889, Junb, Nr4a1, Nr4a2, Pcdh10, and Srxn1). […] The set of 10 IEGs was used since even though all of the IEGs were specific to acute activation by odors, they were still only detected in a minority of cells due to the sparse nature of scSeq. […]

For 2-hydroxyacetophenone, the “binding to the M72 receptor relative to acetophenone” value (M72 receptor) is listed as “binds more strongly to the M72 receptor” and the “activation scores in OSNs expressing M72” value (M72 (Olfr160)) is listed as “higher activation scores than acetophenone”.
For OCCc1ccccc1 [2-phenylethanol], the “activation of OR10A6 in vitro” value (OR10A6 [1]) is given as “activated” and the “mean total count normalized expression of 9 IEGs in OSNs expressing OR10A6 vs other ORs” value (OR10A6 [2]) is given as “much higher IEG expression”.
For CCCCC=O [Pentanal], the “breadth of responses across the population of glomeruli” value (olfactory bulb glomeruli) was “broadest responses across the population of glomeruli”.
In the case of CCCCCCCC=O [octanal], the “overlap between ORs activated by ACE and OCT, odds ratio” value ([3]; Fisher's exact test, overlap at chance levels) is reported as 1.42 and the “z-scored expression of 10 immediate early genes (IEGs) for each OSN subtype, odor vs control” value ([3]; odor vs control (DPG) conditions) is reported as “higher in the odor conditions”.
